Source: patent US20020091124A1, “2-acyl indole derivatives and their use as antitumor agents” (priority 2000, published 2002)
pIC50: −log10 of the molar value. Like-named read-outs stand apart in the source and are kept apart here.

Experiments:
[1] = Tolerability and oral administration in naked mice; format: in vivo
Source text: (§1) . The cell lines included intestinal (2), stomach (1), lung (3), breast (2), melanoma (2), ovary (1), kidney (1) and uterus (1) tumor cell lines. […]. Emphasis is furthermore to be given to the oral bioavailability of the indole compounds according to the invention. […]

RKO p21 cells = test: RKOp21 model, XTT assay; format: cell-based; details: Homo sapiens; Table 2; read-out: RKP p21 induced IC50
Source text: The model used for examining the cell cycle-specific action was the RKOp21 cell system (M. Schmidt et al. Oncogene19(20):2423-9, 2000). RKO is a human colon carcinoma line in which the cell cycle inhibitor p21^wafl is expressed induced by the ecdysone expression system and leads to an arrest of the cell cycle specifically in G1 and G2. Nonspecific substances inhibit proliferation independently of whether the RKO cell is arrested in G1 or G2 or not. In contrast, cell cycle-specific substances, such as, for example, tubulin inhibitors, are only cytotoxic if the cells are not arrested and the cell cycle is in progress. […] This underlines the arrest of the cell cycle in […] already found in the FACS analyses, and a cell cycle-specific action of the compounds tested.
The assay is carried out in 96-well plates. […] Comparison of the activity on induced and non-induced cells allows conclusions to be drawn about the mechanism of action (cell cycle specificity) of the therapeutics. Non-induced [sic] cells are sown at a cell count which is about four times higher than that of non-induced cells since, compared to non-induced cells, there is no further division during the assay (2×10^4 cells/well induced, about 0.6×10^4 cells/well not induced). The controls are untreated cells (+/− induction). Induction is carried out using 3 μM of muristerone A. On day 1, the cells are plated (+/− muristerone A) and incubated at 37° C. for 24 h. On day 2, the test substance is added (control DMSO) and incubation at 37° C. is continued for another 48 h, after which a standard XTT assay is carried out.

human melanoma MEXF 989 = test: Human tumor xenograft MEXF 989 in naked mice; format: in vivo; details: MEXF 989, oral, 2 weeks, 5 administrations per week
Source text: as §1, with “For the in vivo experiments on naked mice, subcutaneously transplanted tumor fragments of the human melanoma MEXF 989 and/or the rhabdomyosarcoma SXF 463 were used. […]; Monday to Friday). […]. The” for “. The”

[2] = tested on: 12 permanent human tumor cell lines; test: Propidium iodide-based cytotoxicity assay; format: cell-based
Source text: as §1

[3] = tested on: human glioma cell line U373; test: XTT cytotoxicity test, U373; details: U373 MG, 45 h, read-out: IC50 U373
[4] = tested on: human glioma cell line A-172; test: XTT cytotoxicity test, A-172; details: A 172, 45 h, read-out: IC50 A-172
[5] = tested on: human cervical carcinoma cell line KB/HeLa; test: XTT cytotoxicity test, KB/HeLa; format: cell-based
rat glioma cell line C6 = test: XTT cytotoxicity test, C6; details: 45 h, read-out: IC50 C6
rhabdomyosarcoma SXF 463 = test: Human tumor xenograft SXF 463 in naked mice; format: in vivo; details: SXF 463, oral, 200 mg/kg, 2 weeks
Source text: as §1, with “For the in vivo experiments on naked mice, subcutaneously transplanted tumor fragments of the human melanoma MEXF 989 and/or the rhabdomyosarcoma SXF 463 were used. […]; Monday to Friday). […]. The” for “. The”

[6] = tested on: human glioblastoma cell line U373; test: Cell cycle analysis by FACS; details: U373, treated 24 h, FIG. 2
[7] = tested on: human glioma cell line U118; test: XTT cytotoxicity test, U118; details: 45 h, read-out: IC50 U118
bovine brain tubulin = tested on: T1, bovine brain tubulin; test: Bovine tubulin polymerization assay; format: biochemical; details: inhibition of tubulin polymerization; read-out: Tubulin-hemmung/ IC50
T1 construct: The tubulin used in the assay was isolated from bovine brain using cycles of polymerization and depolymerization
Protocol: In an in vitro test, selected compounds were tested for inhibition of polymerization of bovine brain. In this test, tubulin purified by cycles of polymerization and depolymerization, polymerization being initiated by addition of GTP and heating, is used.
The tubulin used in the assay was isolated from bovine brain using cycles of polymerization and depolymerization. […] The appropriate amount of test substance, dissolved in 100% DMSO, is pipetted to this mixture. 10 μl of purified bovine tubulin (50-60 μg of tubulin per well) are then added. […] 200 μl/well of decolorizing solution (25 mM NaOH, 50% ethanol, 0.05 mM EDTA) are finally added using a pipette. Following a 20 minute incubation at room temperature on a shaker (400 rpm), the absorption of 600 nm [sic] is measured in a photometer. What is calculated is the inhibition in % based on the 100% value of a positive control (which contains no test substance), and/or, if a concentration/activity curve is plotted, the lC50 value.

various glioma lines = test: XTT cytotoxicity test, various glioma lines; format: cell-based
Source text: The publication by M. Medarde et al. 1998, Eur. J. Med. Chem. Vol. 33, pp. 71-77 describes combretastatin analogs which have antitumor action in a proliferation assay with the tumor cell lines P388 (leukemia, murine), A549 (pulmonary carcinoma, human), HT29 (colon carcinoma, human) and Mel28 (melanoma, human).

[8] = read-out: Zytotoxizität KB/HeLa IC50
[9] = XTT test, 45 h incubation, read-out: IC50 KB/HeLa

Compound | melting point | pIC50 (bovine brain tubulin) | pIC50 (RKO p21 cells) | pIC50 [3] | pIC50 [4] | pIC50 [5, 8] | pIC50 (rat glioma cell line C6) | cells in the metaphase of mitotic division (M-phase) [6] | pIC50 [7] | pIC50 [5, 9] | IC50 [5, 8] | IC50 (RKO p21 cells) | other results
O=C(O)c1ccc(C(=O)c2cc3ccccc3[nH]2)cc1 [Example 107, 4-(1H-2-indolylcarbonyl)-1-benzenecarboxylic acid] | > 220 °C | – | – | – | – | – | – | – | – | – | – | – | –
COc1ccc2[nH]c(C(=O)c3ccccc3)cc2c1 [Example D-64131, 5-methoxy-1H-2-indolylphenyl-1-methanone] | – | – | 7.82 | 7.66 | 7.29 | 7.62 | 7.02 | concentration-dependent arrest of the cells in mitosis | 7.62 | – | – | – | oral bioavailability ([1]; concluded from oral activity): orally bioavailable; tolerated maximum dose ([1]; intraperitoneal injection, administered weekly): 400 mg/kg; tolerability ([1]; p.o. 100 and 200 mg/kg, Qdx5 for 2 weeks): tolerated very well; growth inhibition (human melanoma MEXF 989; 100 mg/kg/day): 66%; growth inhibition (human melanoma MEXF 989; 200 mg/kg/day): 81%; pIC50 ([2]; 12 human tumor cell lines, read-out: average IC50 for all cell lines examined): 6.47; pIC50 ([2]; lung and stomach tumor cell lines, read-out: IC50): ~5.40; pIC50 ([2]; melanoma, intestinal and kidney tumor cells, read-out: IC50): 8.40; pIC50 ([5]; 45 h, read-out: IC50 KB/HeLa): 7.62; growth inhibition relative to the control (rhabdomyosarcoma SXF 463): 83%
COc1ccc2[nH]c(C(=O)c3cc(OC)c(OC)c(OC)c3)cc2c1 [Example D-68150, 5-methoxy-1H-2-indolyl(3,4,5-trimethoxyphenyl)-1-methanone] | – | 5.00 | 7.77 | 7.71 | 7.73 | 7.49 | 7.11 | concentration-dependent arrest of the cells in mitosis | 7.71 | – | – | – | pIC50 ([5]; 45 h, read-out: IC50 KB/HeLa): 7.49
CC(=O)O[C@H]1C(=O)[C@@]2(C)[C@H]([C@H](OC(=O)c3ccccc3)[C@]3(O)C[C@H](OC(=O)[C@H](O)[C@@H](NC(=O)c4ccccc4)c4ccccc4)C(C)=C1C3(C)C)[C@]1(OC(C)=O)CO[C@@H]1C[C@@H]2O [Taxol, reference compound] | – | – | – | – | – | – | – | – | – | – | – | 0.0078 µg/mL | –

The next lines start with results.

melting point | pIC50 (bovine brain tubulin) | Compound | pIC50 (RKO p21 cells) | pIC50 [3] | pIC50 [4] | pIC50 [5, 8] | pIC50 (rat glioma cell line C6) | cells in the metaphase of mitotic division (M-phase) [6] | pIC50 [7] | pIC50 [5, 9] | IC50 [5, 8] | IC50 (RKO p21 cells) | other results
– | 5.67 | COc1ccc2[nH]c(C(=O)c3ccccc3OC)cc2c1 [Example D-68143, 5-methoxy-1H-2-indolyl(2-methoxyphenyl)-1-methanone] | 7.55 | 7.54 | 7.14 | – | 7.01 | – | 7.64 | 7.46 | – | – | –
– | 5.62 | COc1cccc(C(=O)c2cc3cc(OC)ccc3[nH]2)c1 [Example D-68144, 5-methoxy-1H-2-indolyl(3-methoxyphenyl)-1-methanone] | 8.44 | 8.30 | 7.82 | – | 8.02 | concentration-dependent arrest of the cells in mitosis | 8.08 | 8.18 | – | – | factor more active than compound 4d (various glioma lines; compared with Medarde et al.): 40-60; pIC50 (various glioma lines; read-out: inhibitory activity IC50 in various glioma lines): 7.82 to 8.30
– | > 5.00 | COc1ccc(C(=O)c2cc3cc(OC)ccc3[nH]2)c(OC)c1 [Example D-68172, 5-methoxy-1H-2-indolyl(2,4-dimethoxyphenyl)-1-methanone] | 6.87 | 7.12 | 6.48 | – | 6.74 | – | 6.92 | 6.97 | – | – | –
190 to 192 °C | 5.60 | COc1ccc2[nH]c(C(=O)c3ccc(Cl)c(Cl)c3)cc2c1 [Example D-70026, 5-methoxy-1H-2-indolyl(3,4-dichlorophenyl)-1-methanone] | – | – | – | – | – | – | – | – | ~0.1 µg/mL | – | –
141 to 142 °C | 6.09 | COc1cc(OC)cc(C(=O)c2cc3cc(C)ccc3[nH]2)c1 [Example D-70316, 5-methyl-1H-2-indolyl(3,5-dimethoxyphenyl)-1-methanone] | 7.75 | – | – | – | – | – | – | – | – | – | –
– | 6.41 | COc1ccc2[nH]c(C(=O)c3cccc(F)c3)cc2c1 [Example D-81187] | 7.77 | – | – | – | – | – | – | – | – | – | –
